Measured values as given in paper PMC11966596, “Perturbation-Modulated Native Mass Spectrometry Excludes a Nonspecific Drug Target Protein Binder Based on Conformation Stability Change” (Analytical Chemistry, 2025).

Experiments:
[1] = target: T1, lysozyme (Gallus gallus, UniProt P00698); experiment: native OPP-ESI-MS, charge state distribution; format: binding; conditions: 100 μM protein, 1 mM ligand; 25 mM ammonium acetate; OPP solvent 10 mM NH4Ac
T1 construct: gene LYZ

[2] = target: DHFR (recombinant human DHFR) (Homo sapiens, UniProt P00374); conditions: 5 μM his-tagged protein; 100 mM ammonium acetate; co-purified NADPH present
Chain of DHFR (recombinant human DHFR) (P00374 whole entry): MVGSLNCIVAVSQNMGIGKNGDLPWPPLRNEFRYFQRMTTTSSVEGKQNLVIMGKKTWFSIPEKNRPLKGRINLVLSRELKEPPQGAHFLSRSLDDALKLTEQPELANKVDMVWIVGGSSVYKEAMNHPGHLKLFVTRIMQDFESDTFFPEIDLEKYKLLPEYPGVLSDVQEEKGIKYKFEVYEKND

T1 sequence (P00698 19-147): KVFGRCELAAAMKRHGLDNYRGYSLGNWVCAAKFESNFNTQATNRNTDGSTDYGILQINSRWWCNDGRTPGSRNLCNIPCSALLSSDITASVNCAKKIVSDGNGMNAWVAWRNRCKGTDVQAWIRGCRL

SMILES: CC(=O)N[C@H]1[C@H](O[C@H]2[C@H](O)[C@@H](NC(C)=O)C(O)O[C@@H]2CO)O[C@H](CO)[C@@H](O[C@@H]2O[C@H](CO)[C@@H](O)[C@H](O)[C@H]2NC(C)=O)[C@@H]1O (some centres unmarked) [NTAC]
- R (bound/unbound protein ratio) [1]: 0.59

SMILES: Nc1nc(N)c2nc(CNc3ccc(C(=O)N[C@@H](CCC(=O)O)C(=O)O)cc3)cnc2n1 [aminopterin]
- % binding at 100 μM [2]: 100%
